Test results as given in patent publication US20040023924A1, “Use of xyloglucan polymers and oligomers, and derivative compounds, as phytosanitary products and biofertilizers” (priority 2000, published 2004).

What was measured:
[1] = system: glutathione-reductase (EC 1.6. 4.2); test: Elicitation of glutathione-reductase activity in protoplasts; assay type: cell-based, Rubus fruticosus L.; conditions: for Optimal glutathione reductase elicitation response (100% = non-elicited controls): at the optimal dose
From the text: Preparation of Rubus fruticosus L. protoplasts according to Vargas-Rechia et al. (1998). The protoplast yield is of the order of 70 to 85% of the initial number of cells used; the viability of the protoplasts, of the order of 90 to 95%, was checked using Evans blue indicator.
Glutathione-reductase (GR) activity assay according to Jahnke L S et al. (1991):
GSSG (glutathione in oxidized form) is reduced to GSH (glutathione in reduced form) by the enzyme glutathione-reductase (EC 1.6. 4.2); the reaction is coupled with the oxidation of NADPH to NADP in the catalytic cycle (glutathione, glutathione-reductase, NADPH). The glutathione-reductase activity is measured by evaluating the formation of NADP in the medium, which is carried out by monitoring the absorbance reduction at 340 nm.
Test: 4.10^6 protoplasts in 1 ml of Tris-HCl buffer (pH 4.8) are incubated at 10° C., 15° C., 25° C. in the presence of the elicitor (0 to 100 μM): 2′-fucosyl lactose (compound A), xyloglucan XXFGol (compound B). After interaction for 10 minutes, an enzymatic extract is prepared according to Jahnke et al. (1991), and a 16.000 g aliquot of the supernatant (equivalent to 1 μg of proteins) is introduced into the pH 7.8 reaction medium (80 mM K2PO4, 500 μM GSSG, 150 μM NADPH, 200 μM DTPA) for the glutathione-reductase activity assay; the A340 recording is carried out for 1 minute using a Beckman D U 640 spectrophotometer.
Evaluation of the experimental data: The reaction rate is given by ΔA340 min^−1. At least three kinetic curves are plotted per experimental condition and per sample. One point on the graph corresponds to the value of the slope of the regression curve deduced from at least 6 kinetic curves.
The elicitation response is evaluated by measuring the formation of NADP at 340 nm. The 100% reference value corresponds to the NADP content in the controls (non-elicited protoplast suspensions).

[2] = system: vine; test: Induction of cold resistance in the vine (cold protection index after foliar spraying); assay type: in vivo, vine (variety Chenin); conditions: vine plants
Protocol: Plants originating from different vine varieties (Chenin, Grolleau, Carignan, Cabernet sauvignon, Cabernet Sauvignon, Pinot noir, Merlot, Chardonnay, Gamay etc.) are used for the study. Each sample, comprising 5 to 10 plants, is treated with foliar spraying at the end of the bud development (starting from vegetative stage 7 on the BBCH scale), or during the inflorescence development period (starting from vegetative stage 12) or at the start of flowering (as from stage 19), with the elicitor (oligomer: XXFG; derivative: 2′-fucosyl lactose) in solution at a variable dose (0.03 mg/l ≦dose≦3.3 mg/l; the spraying of 2.5 ml of solution per plant is carried out using a hand sprayer (deviation of +/−1%).
After treatment, the plants are exposed to cold stress of variable duration and intensity (for example, temperature varying from −2° C. to −5° C.; duration less than or equal to 240 minutes).
After exposure to the cold, the plants are placed in a climatic chamber at 20° C. with a 12-hour day/night alternation. […] The effects of the cold are evaluated by observing the foliar necroses induced by frost and the plants are kept for several months in order to monitor their subsequent development.
The proportion P (%) of foliar necroses observed 3 hours or 24 hours or 48 hours or 72 hours after the cold stress is counted, and the results are expressed by the protection index I=(100-P) %. […]

Compound: C[C@@H]1O[C@@H](O[C@H]2[C@H](O[C@H]3[C@H](O)[C@@H](O)[C@H](O)O[C@@H]3CO)O[C@H](CO)[C@H](O)[C@@H]2O)[C@@H](O)[C@H](O)[C@@H]1O [compound A, α-L-Fuc(1→2)β-D-Gal(1→4)β-D-Glc]
- Elicitor dose of optimal glutathione reductase elicitation response ([1]; 10° C.): 25 nM
- Optimal glutathione reductase elicitation response (100% = non-elicited controls) ([1]; 10° C.): 2500%
- Elicitor dose of optimal glutathione reductase elicitation response ([1]; 15° C.): 100 nM
- Optimal glutathione reductase elicitation response (100% = non-elicited controls) ([1]; 15° C.): 780%
- Glutathione reductase elicitation response ([1]; 25° C.): no significant response
- Cold-resistance-inducer effect, efficiency compared with XXFG [2]: equal or slightly lower efficiency
